Results taken from patent US5166146A, “Amino acid cyclopentanophenonthrene compounds” (Roussel Uclaf, priority 1989, dated 1992).
Structures can show the parent of a compound that is named as a salt.

Key:
[1] = target: T1, Progesterone receptor of rabbit's uterus (Oryctolagus cuniculus, UniProt P06186); test: Relative bond affinity, progesterone receptor of rabbit's uterus (tritiated R 5020 displacement); type: binding; settings: progesterone = 100
T1 construct: The uteruses were removed, weighed and homogenised at 0° C; from tissue; host or cells: uterus cytosol (105,000 g supernatant) of estradiol-primed impuberal female rabbits
T1 sequence (P06186 1-930): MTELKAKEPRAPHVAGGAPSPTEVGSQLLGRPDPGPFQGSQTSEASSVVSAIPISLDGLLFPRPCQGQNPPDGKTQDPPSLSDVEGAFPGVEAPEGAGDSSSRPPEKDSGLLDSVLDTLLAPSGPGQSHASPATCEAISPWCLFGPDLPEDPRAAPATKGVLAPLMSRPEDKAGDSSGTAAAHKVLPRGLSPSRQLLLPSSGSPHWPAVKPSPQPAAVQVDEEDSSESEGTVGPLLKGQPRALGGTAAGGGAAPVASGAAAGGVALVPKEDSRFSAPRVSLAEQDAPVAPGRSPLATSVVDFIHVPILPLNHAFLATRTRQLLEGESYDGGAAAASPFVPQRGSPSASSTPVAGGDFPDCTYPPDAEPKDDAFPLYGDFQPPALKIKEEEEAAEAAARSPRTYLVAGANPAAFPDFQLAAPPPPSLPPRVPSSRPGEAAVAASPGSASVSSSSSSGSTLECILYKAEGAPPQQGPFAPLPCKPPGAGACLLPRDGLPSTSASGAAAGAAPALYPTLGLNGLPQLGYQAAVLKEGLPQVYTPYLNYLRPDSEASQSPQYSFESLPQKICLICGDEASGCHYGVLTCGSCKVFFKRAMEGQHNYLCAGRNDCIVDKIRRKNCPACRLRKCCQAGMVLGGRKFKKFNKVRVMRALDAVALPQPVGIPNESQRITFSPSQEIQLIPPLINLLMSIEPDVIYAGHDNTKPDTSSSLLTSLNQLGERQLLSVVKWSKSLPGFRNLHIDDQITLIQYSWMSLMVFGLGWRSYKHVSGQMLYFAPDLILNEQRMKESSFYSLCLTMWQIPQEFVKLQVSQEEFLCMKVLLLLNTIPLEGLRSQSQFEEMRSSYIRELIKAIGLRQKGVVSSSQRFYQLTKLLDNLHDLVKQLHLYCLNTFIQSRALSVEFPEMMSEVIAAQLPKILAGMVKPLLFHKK
Experimental: Impuberal female rabbits weighing about 1 kg received a cutaneous application of 25 μg of estradiol and five days after this treatment, the animals were killed. The uteruses were removed, weighed and homogenised at 0° C. using a Potter teflon-flask ina (TS) 10 mM Tris, 0.25M saccharose, HCl pH 7.4 buffer (1 g of tissue per 50 ml of TS). The homogenate was ultra-centrifuged at 105,000 g×90 mn at 0° C. and aliquots of the supernatant or "cytosol", were incubated at 0° C. for 2 hours and 24 hours with a constant concentration (T=5 nm) of tritiated R 5020 (17,21-dimethyl-19-nor-Δ^4,9 -pregnadien-3, 20-dione, strongly progrestomimetic mimetic having a great affinity for the progesterone receptor), in the presence of increasing concentrations (0-2500 nM) of cold progesterone, or of the product under test. The concentration of bonded tritiated R 5020 (B) was measured in each incubate by the technique of adsorption with carbon-dextran. […]
(§1) The straight line of the equation: [formula] was determined. […]
(§2) The intersections of the straight line I50 and the curves allow the evaluation of the concentrations of the cold reference hormone (CH) and of the cold product under test (CX) which inhibit by 50% the bonding of the tritiated hormone on the receptor. The relative bond affinity (RBA) of the product under test was determined by the equation RBA=100 (CH)/(CX)

[2] = target: T2, Glucocorticoid receptor of rat's thymus (Rattus norvegicus, UniProt P06536); test: Relative bond affinity, glucocorticoid receptor of rat's thymus (tritiated dexamethasone displacement); type: binding; settings: dexamethasone = 100
T2 construct: The thymuses were removed and homogenized at 0° C; from tissue; host or cells: thymus cytosol (105,000 g supernatant) of adrenalectomized male rats
T2 sequence (P06536 1-795): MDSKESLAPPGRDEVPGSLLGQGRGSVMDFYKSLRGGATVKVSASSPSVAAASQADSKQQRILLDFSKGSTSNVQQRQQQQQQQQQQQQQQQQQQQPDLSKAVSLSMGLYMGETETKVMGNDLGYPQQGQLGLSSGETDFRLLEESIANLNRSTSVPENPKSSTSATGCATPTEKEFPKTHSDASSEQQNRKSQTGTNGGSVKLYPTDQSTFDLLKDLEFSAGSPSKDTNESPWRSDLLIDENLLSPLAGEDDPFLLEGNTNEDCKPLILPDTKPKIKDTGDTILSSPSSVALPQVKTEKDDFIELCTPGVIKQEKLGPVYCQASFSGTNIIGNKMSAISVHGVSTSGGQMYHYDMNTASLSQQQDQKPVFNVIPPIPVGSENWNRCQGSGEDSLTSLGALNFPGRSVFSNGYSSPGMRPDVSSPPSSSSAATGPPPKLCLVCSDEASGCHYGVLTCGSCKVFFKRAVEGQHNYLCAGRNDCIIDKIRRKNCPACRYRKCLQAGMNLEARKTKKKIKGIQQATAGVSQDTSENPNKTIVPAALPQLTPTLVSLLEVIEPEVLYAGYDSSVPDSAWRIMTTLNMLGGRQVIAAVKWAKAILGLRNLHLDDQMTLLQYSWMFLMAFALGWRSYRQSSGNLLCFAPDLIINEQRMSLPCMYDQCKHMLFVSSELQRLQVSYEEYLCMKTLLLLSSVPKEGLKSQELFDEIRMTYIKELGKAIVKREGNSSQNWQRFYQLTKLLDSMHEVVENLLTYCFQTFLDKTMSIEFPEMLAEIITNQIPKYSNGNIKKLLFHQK
Experimental: Male rats weighing 160 to 200 g were suprarenalectomized and 4 to 8 days after this removal, the animals were killed. The thymuses were removed and homogenized at 0° C. using a Potter teflon-flask in a (TSD) 10 mM Tris, 0.25M saccharose, 2mM dithiothreitol, HCl, pH 7.4 buffer (1 g of tissue per 10 ml of TSD). The homogenate was ultracentrifuged at 105,000 g×90 mn at 0° C. and aliquots of the supernatant or "cystosol" were incubated at 0° C. for 4 hours and 24 hours with constant concentration (T=2.5 nM) of tritiated dexamethasone in the presence of increasing concentrations (0-2,500 nM) of cold dexamethasone or of the cold product under test. The concentration of the bonded tritiated dexamethasone (B) was then measured in each incubate by the technique of adsorption with carbon-dextran.
(§3) The calculation of the relative bond affinity (RBA) was identical for all receptors. […]
as §1, §2

[3] = target: T3, Androgen receptor of rat's prostate (Rattus norvegicus, UniProt P15207); test: Relative bond affinity, androgen receptor of rat's prostate (tritiated testosterone displacement); type: binding; settings: testosterone = 100
T3 construct: The prostates were removed, weighed and homogenized at 0° C; from tissue; host or cells: prostate cytosol (105,000 g supernatant) of castrated male rats
T3 sequence (P15207 1-902): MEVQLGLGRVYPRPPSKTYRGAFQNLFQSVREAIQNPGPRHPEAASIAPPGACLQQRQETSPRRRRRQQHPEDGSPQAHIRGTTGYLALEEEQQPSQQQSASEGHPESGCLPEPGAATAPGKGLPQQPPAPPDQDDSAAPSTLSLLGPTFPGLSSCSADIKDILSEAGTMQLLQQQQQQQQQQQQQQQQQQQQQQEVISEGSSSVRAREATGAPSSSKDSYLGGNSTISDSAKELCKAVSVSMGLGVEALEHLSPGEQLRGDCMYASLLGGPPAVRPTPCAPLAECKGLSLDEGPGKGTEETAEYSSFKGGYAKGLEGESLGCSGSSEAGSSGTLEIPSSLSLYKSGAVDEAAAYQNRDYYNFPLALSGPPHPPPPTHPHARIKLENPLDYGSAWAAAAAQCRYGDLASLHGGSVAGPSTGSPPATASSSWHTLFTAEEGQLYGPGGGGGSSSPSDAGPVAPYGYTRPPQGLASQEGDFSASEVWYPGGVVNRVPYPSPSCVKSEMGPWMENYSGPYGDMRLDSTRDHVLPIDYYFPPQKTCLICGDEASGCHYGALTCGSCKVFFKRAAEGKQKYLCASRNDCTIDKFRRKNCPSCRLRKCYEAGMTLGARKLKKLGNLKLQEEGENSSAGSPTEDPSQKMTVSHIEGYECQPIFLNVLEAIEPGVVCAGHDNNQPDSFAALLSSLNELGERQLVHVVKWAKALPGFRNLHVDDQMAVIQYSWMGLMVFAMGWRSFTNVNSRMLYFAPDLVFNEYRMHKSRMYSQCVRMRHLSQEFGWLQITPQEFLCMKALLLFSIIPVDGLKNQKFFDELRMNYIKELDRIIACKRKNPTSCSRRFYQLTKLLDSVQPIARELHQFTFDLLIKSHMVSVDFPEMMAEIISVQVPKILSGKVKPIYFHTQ
Experimental: Male rats weighing of 160 to 200 g were castrated and 24 hours after the castration, the animals were killed. The prostates were removed, weighed and homogenized at 0° C. using a Potter Teflon-flask in a (TSDPM) 10 mM Tris, 0.25 M saccharose, 0.1 mM phenyl methane sulfonyl fluoride, 20 mM molybdate, 2mM dithiothreitol, HCl pH 7.4 buffer (1 g of tissue per 5 ml of TSDPM). The homogenate was ultracentrifuged at 105,000 g×60 mn at 0° C. and aliquots of the supernatant or "cytosol" were incubated at 0° C. with a constant concentration of tritiated testosterone in the presence of increasing concentrations (0-1000 nM) of cold testosterone or of the product under test. […]
as §3, §1, §2

rat thymocytes = test: Anti-glucocorticoid activity vis-a-vis dexamethasone: incorporation of uridine in rat thymocytes; type: cell-based
From the text: Glucocorticoids cause an inhibition of the incorporation of nucleosides in lymphoid tissue and the measurement of the incorporation of radio-active uridine in the thymocytes in the presence of a product under test allows its glucocorticoid activity to be evaluated.
In accordance with the technique described by Dausse et al (3), the thymus of a suprarenalectomized rat weighing 160 to 180 g was removed, shredded and homogenized slowly using a teflon-flask homogenizer in Hanks solution. The cellular suspension was filtered on gauze, then centrifuged at 800 g×10 mn. A new centrifugation was carried out at 800 g×10 mm and the deposit was suspended in a nutritive medium (M.E.M. Gibco). The cellular concentration was adjusted to approximately 20×10^6 cells per ml and aliquots of 250 μl were incubated under carbogen for 3 hours at 37° C. with 5×10^-8 M of dexamethasone in the presence or not of increasing concentrations of product (10^-8 to 10^-6 M). 0.1 uCi of tritiated uridine was added to each incubate and the incubation was continued for one hour. The incubates were cooled and 1 ml of a cold solution of trichloroacetic acid (TCA) at 5% weight/volume was added. […] The radioactivity retained on the filters (representing the tritiated uridine incorporated in the thymocytes) was measured using a liquid scintillation spectrometer.

relative bond affinity (RBA) Progesterone 2H ([1]; incubation 2 hours at 0° C.): 22 | relative bond affinity (RBA) Progesterone 24H ([1]; incubation 24 hours at 0° C.): 107 | relative bond affinity (RBA) Glucocorticoid 4H ([2]; incubation 4 hours at 0° C.): 101 | relative bond affinity (RBA) Glucocorticoid 24H ([2]; incubation 24 hours at 0° C.): 129 | relative bond affinity (RBA) Androgen ([3]; incubation (so in the source) at 0° C.): 10,1 | relative bond affinity (RBA) Androgen 0,5H ([3]; incubation half an hour at 0° C.): 2,1
SMILES: CC#C[C@]1(O)CC[C@H]2[C@@H]3CCC4=CC(=O)CCC4=C3[C@@H](c3ccc(N(C)CC(=O)O)cc3)C[C@@]21C [Example 1, Sodium salt of [[4-[17α-(1-propynyl)-Δ^4,9-estradien-17β-ol-3-one-11 β-yl]-phenyl]-methylamino]-acetic acid]
anti-glucocorticoid activity (statement in words) (rat thymocytes): good anti-glucocorticoid activity
